From patent US8530388B2, “Cyclopentadione derived herbicides” (Syngenta Limited, priority 2009, dated 2013)

How the values were obtained:
Format in all cases: in vivo
Avena fatua (AVEFA) [1] = assay: Pre-emergence herbicidal activity, glasshouse pot test; settings: 312 h, Rate 250 g/ha, sprayed one day after sowing, evaluated after 13 days, 100=total damage to plant, 0=no damage to plant
Protocol: (§1) Seeds of a variety of test species were sown in standard soil in pots. After cultivation for one day (pre-emergence) or after 8 days cultivation (post-emergence) under controlled conditions in a glasshouse (at 24/16° C., day/night; 14 hours light; 65% humidity), the plants were sprayed with an aqueous spray solution derived from the formulation of the technical active ingredient in acetone/water (50:50) solution containing 0.5% Tween 20 (polyoxyethelyene sorbitan monolaurate, CAS RN 9005-64-5). The test plants were then grown in a glasshouse under controlled conditions in a glasshouse (at 24/16° C., day/night; 14 hours light; 65% humidity) and watered twice daily. After 13 days for pre and post-emergence, the test was evaluated (100=total damage to plant; 0=no damage to plant). Test plants: Setaria faberi (SETFA), Lolium perenne (LOLPE), Alopecurus myosuroides (ALOMY), Echinochloa crus-galli (ECHCG), and Avena fatua (AVEFA) Pre-Emergence Activity

Lolium perenne (LOLPE) [2] = assay: as above; settings: 312 h, Rate 250 g/ha, sprayed one day after sowing, evaluated after 13 days, 100=total damage to plant, 0=no damage to plant
Protocol: as §1

[3] = test system: Echinochloa crus-galli (ECHCG); assay: as above; settings: 312 h, Rate 250 g/ha, sprayed one day after sowing, evaluated after 13 days, 100=total damage to plant, 0=no damage to plant
Protocol: as §1

[4] = test system: Alopecurus myosuroides (ALOMY); assay: as above; settings: 312 h, Rate 250 g/ha, sprayed one day after sowing, evaluated after 13 days, 100=total damage to plant, 0=no damage to plant
Protocol: as §1

Avena fatua (AVEFA) [5] = assay: Post-emergence herbicidal activity, glasshouse pot test; settings: 312 h, rate 250 g/ha, evaluated after 13 days, read-out: Post-emergence activity, AVEFA (100=total damage to plant; 0=no damage to plant)
Protocol: as §1, with “plant).” for “plant). Test plants: Setaria faberi (SETFA), Lolium perenne (LOLPE), Alopecurus myosuroides (ALOMY), Echinochloa crus-galli (ECHCG), and Avena fatua (AVEFA) Pre-Emergence Activity”
(§2) Test plants: Setaria faberi (SETFA), Lolium perenne (LOLPE), Alopecurus myosuroides (ALOMY), Echinochloa crus-galli (ECHCG), and Avena fatua (AVEFA)

Lolium perenne (LOLPE) [6] = assay: as above; settings: 312 h, rate 250 g/ha, evaluated after 13 days, read-out: Post-emergence activity, LOLPE (100=total damage to plant; 0=no damage to plant)
Protocol: as §1, with “plant).” for “plant). Test plants: Setaria faberi (SETFA), Lolium perenne (LOLPE), Alopecurus myosuroides (ALOMY), Echinochloa crus-galli (ECHCG), and Avena fatua (AVEFA) Pre-Emergence Activity”
as §2

[7] = test system: Echinochloa crus-galli (ECHCG); assay: as above; settings: 312 h, rate 250 g/ha, evaluated after 13 days, read-out: Post-emergence activity, ECHCG (100=total damage to plant; 0=no damage to plant)
Protocol: as §1, with “plant).” for “plant). Test plants: Setaria faberi (SETFA), Lolium perenne (LOLPE), Alopecurus myosuroides (ALOMY), Echinochloa crus-galli (ECHCG), and Avena fatua (AVEFA) Pre-Emergence Activity”
as §2

[8] = test system: Alopecurus myosuroides (ALOMY); assay: as above; settings: 312 h, rate 250 g/ha, evaluated after 13 days, read-out: Post-emergence activity, ALOMY (100=total damage to plant; 0=no damage to plant)
Protocol: as §1, with “plant).” for “plant). Test plants: Setaria faberi (SETFA), Lolium perenne (LOLPE), Alopecurus myosuroides (ALOMY), Echinochloa crus-galli (ECHCG), and Avena fatua (AVEFA) Pre-Emergence Activity”
as §2

SMILES	pest or weed control at 250 g/ha (Avena fatua (AVEFA) [1]) [%]	pest or weed control at 250 g/ha (Lolium perenne (LOLPE) [2]) [%]	pest or weed control at 250 g/ha [3] [%]	pest or weed control at 250 g/ha [4] [%]	pest or weed control at 250 g/ha (Avena fatua (AVEFA) [5]) [%]	pest or weed control at 250 g/ha (Lolium perenne (LOLPE) [6]) [%]	pest or weed control at 250 g/ha [7] [%]	pest or weed control at 250 g/ha [8] [%]
CCc1ccc(-c2ccc(Cl)cc2)cc1C1=C(O)C2CSCC2C1=O (centres unmarked) [Compound T-2, 5-(4′-Chloro-4-ethylbiphenyl-3-yl)-tetrahydrocyclopenta[c]thiophene-4,6-dione]	0	0	70	0	80	0	100	20
CCc1ccc(-c2ccc(Cl)c(Cl)c2)cc1C1=C(O)CCC1=O [Compound T-5]	0	20	20	20	20	50	70	30
CCc1ccc(-c2ccc(F)cc2)cc1C1=C(O)CCC1=O [Compound T-17]	0	60	80	40	40	50	70	50
CCc1ccc(-c2ccc(Cl)c(F)c2F)cc1C1=C(O)CCC1=O [Compound T-12]	30	50	50	40	50	50	90	50
